The values below are quoted from earlier work in US20110207823A1, “12-HOUR SUSTAINED-RELEASE METOCLOPRAMIDE” (POSIVISIONARY SOLUTIONS LLP, priority 2008, published 2011).

SMILES strings stand for the structures.

For the data set the following is noted: immediate release dosages.

On to `CCN(CC)CCNC(=O)c1cc(Cl)c(N)cc1OC` [metoclopramide, Metoclopramide], for which the “metoclopramide peaks in plasma with undesirable side effects (akathisia)” value is “above 100 nanograms per milliliter”.
